Data published in patent US20250295615A1 (BOARD OF REGENTS, THE UNIVERSITY OF TEXAS SYSTEM, priority 2021, published 2025).

Tests used:
[1] = human, in vivo
Experimental: (§1) Study Outcomes: Safety was compared to evaluate the number, frequency, duration, and relation of toxicity events to CURC and UA, as defined by the Common Terminology Criteria for Adverse Events (CTCAE) v 4.03. […] We also investigated the impact on the microbiome in a paired analysis for change and overall theme of imputed bacterial function.
Measurement of Compounds: The compounds and their metabolites were measured using an UHPLC-MS/MS system performed on a Hybrid quadrupole-Orbitrap mass spectrometer (Q Exactive, Thermo Scientific, Waltham, MA, USA) hyphenated with a Thermo Scientific Vanquish Flex ultrahigh-pressure liquid chromatography (UHPLC) system via electrospray ionization source. For the parallel reaction monitoring (PRM) scan, the resolution, auto gain control (AGC) target, and maximum injection time (IT) were set at 17500, 2e5, and 100 ms. The All-Ion Fragmentation (AIF) scan consisted of a scan range of m/z 100-750 with NCE 10. The resolution, AGC target, and maximum IT for the AIF scan were set at 70000, 3e6, and 200 ms, respectively.
Statistical Analysis: Demographics between groups was compared using the Fischer Exact test for categorical variables and the Student's t-test for continuous variables. Safety laboratory values were analyzed using a paired t-test for differences, with significance set at p<0.05. ANOVA was used to compare plasma levels of UA, CURC, and CURC metabolites. Least significant difference (LSD) was used as the post hoc analysis test to compare values between groups.

[2] = human, in vivo; remark: listed apart in the source
Text: Population and Recruitment: We recruited healthy men enrolled in the SABOR study, which is a community-based prostate cancer screening cohort. The San Antonio Biomarkers of Risk (SABOR) study cohort was funded by the National Cancer Institute Early Detection Research Network-sponsored Clinical and Epidemiologic Validation Center since its nascent enrollment in 2000 (IRB #HSC20000030H). A separate IRB was approved for the phase 1 trial (IRB #HSC20190940H). Subjects had no prior diagnosis of prostate cancer at the time of enrollment and varied prostate cancer risk profiles. We used the local UT Health San Antonio Data Safety and Monitoring Board (DSMB).
as §1
Common Terminology Criteria for Adverse Events (CTCAE) v 4.03. […] A creatinine rise would indicate kidney dysfunction.

[3] = Phase 1 clinical trial, safety laboratory values (week 2 minus baseline); format: in vivo, human
Text: Laboratory Safety values. We perform laboratory analysis at baseline and at the end of the two-week study. We then subtracted the values (week 2-baseline) to obtain the differences for each participant.

prostate tumor = conditions: 7-year period, men taking the drug daily; cited from earlier work
prostate cancer = conditions: mouse, in vivo; cited from earlier work
[4] = week 2 minus baseline, median (IQR), n = 6

SMILES | Plasma levels in words (FIG. 2) [1] | Difference in ALT [3, 4] | Difference in AST [3, 4] | Difference in Albumin [3, 4] | Difference in Alkaline Phosphatase [3, 4] | Difference in Bicarbonate [3, 4] | Difference in Bilirubin [3, 4] | Difference in Calcium [3, 4] | Difference in Chloride [3, 4] | Difference in Creatinine [3, 4] | Difference in Glomerular Filtration Rate (GFR) [3, 4] | Difference in Hematocrit [3, 4] | Difference in Hemoglobin [3, 4] | Difference in Platelets [3, 4] | Difference in Sodium [3, 4] | other results
COc1cc(/C=C/C(=O)CC(=O)/C=C/c2ccc(O)c(OC)c2)ccc1O [Curcumin, curcumin] | Minimal amounts of the parent curcumin compound and large amounts of curcumin glucuronide | −1.0 (−3.25 to 0.0) | 2.0 (−2.0 to 3.3) | 0.05 (−0.05 to 0.2) | −2.0 (−5.5 to 9.3) | −1.5 (−4.3 to 0.0) | −0.1 (−0.3 to 0.0) | 0.2 (−0.15 to 0.32) | −0.5 (−1.3 to 0.8) | 0.07 (−0 07 to 0.16) | −5.5 (−12.0 to 4.5) | 0.25 (−1.45 to 2.35) | 0.20 (−0.30 to 0.55) | 7.0 (−5 to 31.5) | 0.0 (−1.5 to 1.0) | Relationship To Study Treatment [2]: Unlikely; GFR after 2 weeks, individual participant ([3]; curcumin arm participant baseline 45, CurcUA participant baseline 76): 46; Difference in White blood cell (WBC) [3, 4]: 0.15 (−0.43 to 0.68)
CC(C)(C)NC(=O)[C@H]1CC[C@H]2[C@@H]3CC[C@H]4NC(=O)C=C[C@]4(C)[C@H]3CC[C@]12C [Finasteride] |  |  |  |  |  |  |  |  |  |  |  |  |  |  |  | Reduction in prostate tumor prevalence (prostate tumor): 24.8%
C[C@H]1[C@H](C)CC[C@]2(C(=O)O)CC[C@]3(C)C(=CC[C@@H]4[C@@]5(C)CC[C@H](O)C(C)(C)[C@@H]5CC[C@]43C)[C@H]12 [Ursolic Acid, ursolic acid] | modest absorption of ursolic acid | 1.5 (1.0 to 12.8) | 2.0 (−1.3 to 3.3) | 0.0 (−0.1 to 0.2) | 2.5 (−2.5 to 5.0) | 1.0 (−1.5 to 3.0) | 0.0 (−0.08 to 0.15) | 0.03 (−0.05 to 0.48) | −1.0 (−2.75 to 1.75) | −0.08 (−0.33 to 0.12) | −3.5 (−10.3 to 3.5) | 1.55 (−0.85 to 2.85) | 0.20 (−0.33 to 0.58) | 9.5 (2.5 to 27) | 0.5 (−1.5 to 2.25) | Effect on prostate cancer in TRAMP mice (prostate cancer): inhibited initiation, progression, and metastasis of prostate cancer; Median plasma values of CURC and its metabolites ([1]; male, 14 day): 0.0 ng/mL
